Data on 27 compounds can be found in US11559538B2, “Substituted 1,2-oxaborolan-2-ols as PDE4 inhibitors” (Pfizer Inc., priority 2018, dated 2023).

pIC50: −log10 of the molar value. Read-outs that look alike come from different tables or passages of the source.

By pIC50 is commonly meant −log10 of the IC50, conventionally taken in molar units.

Test [1] concerns the target PDE4B (aa 152-484, Uniprot ID Q07343) (Homo sapiens (Human), UniProt Q07343). The experiment in a line: PDE4 SPA assay (scintillation proximity assay). The class given is biochemical. The note with it: read-out: PDE4B2 IC50. In outline:
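Scintillation proximity read-out after a 30 min room-temperature reaction of ~81.6 pM PDE4B catalytic fragment (aa 152-484) with 1 μM tritiated/unlabeled cAMP, pH 7.5 Tris buffer with MgCl2 and Brij 35. Compound given ~10 min beforehand, 4-fold dilutions, ~2% DMSO; IC50 from four-parameter logistic curve.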
In general terms: In a scintillation proximity assay essentially only radioactivity close to the scintillant gives light.

Another test deals with IL-4. The experiment in a line: Cytokine assay: IL-4 release from PHA-L stimulated human PBMCs. The format is cell-based. As to conditions: read-out: IL4 IC50. In a few lines:
(§1)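 Human peripheral blood mononuclear cells are pre-exposed to test compound, then activated with the T-cell mitogen PHA-L (3.5 μg/mL in the well). After two days of culture at 37° C, supernatant cytokine levels are quantified by HTRF. Potency is expressed as IC50.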

The test system of another test is IL-13. The experiment in a line: Cytokine assay: IL-13 release from PHA-L stimulated human PBMCs. The format is cell-based. The note with it: read-out: IL13 IC50. In outline: as §1
In another test the test system is IFNγ. The experiment in a line: Cytokine assay: IFNγ release from PHA-L stimulated human PBMCs. The format is cell-based. In a few lines:
as §1

PDE4B (aa 152-484, Uniprot ID Q07343), sequence (Q07343 324-656): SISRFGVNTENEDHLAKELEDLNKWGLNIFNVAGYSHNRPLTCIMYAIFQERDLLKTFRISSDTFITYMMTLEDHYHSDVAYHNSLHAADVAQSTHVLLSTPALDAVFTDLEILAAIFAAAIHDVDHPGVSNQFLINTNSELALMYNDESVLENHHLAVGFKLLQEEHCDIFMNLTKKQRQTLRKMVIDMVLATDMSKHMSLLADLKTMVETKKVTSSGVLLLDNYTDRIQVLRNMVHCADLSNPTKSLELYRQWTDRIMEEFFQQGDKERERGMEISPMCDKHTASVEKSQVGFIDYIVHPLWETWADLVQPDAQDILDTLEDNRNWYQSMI

On to `COc1ccc(-c2cncc(C3COB(O)C3)c2)c(F)c1OC` (stereo not drawn) [Example 109, 4-(5-(2-fluoro-3,4-dimethoxyphenyl)pyridin-3-yl)-1,2-oxaborolan-2-ol], for which the pIC50 in test [1] is 8.38; with IL-4 it was 7.64; in the test with IL-13, 5.90; with IFNγ it was 8.20.

`CCCCCOc1cc(-c2cccc(C3COB(O)C3)c2)ccc1OC` (stereo not drawn) [Example 110, 4-(4′-methoxy-3′-(pentyloxy)-[1,1′-biphenyl]-3-yl)-1,2-oxaborolan-2-ol]: the pIC50 in test [1] is 9.21; in the test on IL-4 (Homo sapiens, PBMC), 7.32; in the test with IL-13 (Homo sapiens, PBMC) it was 6.30; in the test on IFNγ (Homo sapiens, PBMC), 8.29.

Regarding `CCCOc1cc(-c2cncc(C3COB(O)C3)c2)ccc1SC` (stereo not drawn) [Example 112, 4-(5-(4-(methylthio)-3-propoxyphenyl)pyridin-3-yl)-1,2-oxaborolan-2-ol], the pIC50 was 8.85 in test [1]; 7.10 in the test with IL-4; 6.23 in the test on IL-13 (Homo sapiens, PBMC); 8.09 with IFNγ.

As to `CCCOc1cc(-c2cncc(C3COB(O)C3)n2)ccc1OC` (stereo not drawn) [Example 115, 4-(6-(4-methoxy-3-propoxyphenyl)pyrazin-2-yl)-1,2-oxaborolan-2-ol], the pIC50 in test [1] was 8.96; in the test on IL-4 (Homo sapiens, PBMC), 7.42; in the test on IL-13 (Homo sapiens, PBMC) it was 6.29; in the test with IFNγ (Homo sapiens, PBMC) it was 8.77.

In the case of `COc1cc(-c2cccc(C3COB(O)C3)c2)cc(C#N)c1OC` (stereo not drawn) [Example 117, 3′-(2-hydroxy-1,2-oxaborolan-4-yl)-4,5-dimethoxy-[1,1′-biphenyl]-3-carbonitrile], the pIC50 is 8.74 in test [1]; 7.19 in the test with IL-4 (Homo sapiens, PBMC); 6.28 in the test on IL-13 (Homo sapiens, PBMC); 8.00 in the test on IFNγ (Homo sapiens, PBMC).

With `CCOc1cc(-c2cncc(C3COB(O)C3)c2)cc(C#N)c1OC` (stereo not drawn) [Example 118, 3-ethoxy-5-(5-(2-hydroxy-1,2-oxaborolan-4-yl)pyridin-3-yl)-2-methoxybenzonitrile], the pIC50 in test [1] was 9.05; in the test with IL-4 (Homo sapiens, PBMC), 8.01; with IL-13 (Homo sapiens, PBMC) it was 6.27; in the test with IFNγ (Homo sapiens, PBMC) it was 8.58.

Regarding `CCOc1nc(-c2cccc(C3=CB(O)OC3)c2)ccc1OC` [Example 120, 4-(3-(6-ethoxy-5-methoxypyridin-2-yl)phenyl)-1,2-oxaborol-2(5H)-ol], the pIC50 is 8.95 in test [1]; 6.77 in the test with IL-4 (Homo sapiens, PBMC); 5.68 in the test on IL-13 (Homo sapiens, PBMC); 8.11 in the test with IFNγ (Homo sapiens, PBMC).

With `CCOc1nc(-c2cccc(C3COB(O)C3)c2)ccc1OC` (stereo not drawn) [Example 121, 4-(3-(6-ethoxy-5-methoxypyridin-2-yl)phenyl)-1,2-oxaborolan-2-ol], the pIC50 in test [1] was 9.16; in the test on IL-4 (Homo sapiens, PBMC) it was 7.24; with IL-13 (Homo sapiens, PBMC), 6.27; with IFNγ (Homo sapiens, PBMC) it was 8.82.

As to `CCCOc1cc(-c2nc(C3COB(O)C3)cc(C(F)(F)F)n2)ccc1OC` (stereo not drawn) [Example 124, 4-(2-(4-methoxy-3-propoxyphenyl)-6-(trifluoromethyl)pyrimidin-4-yl)-1,2-oxaborolan-2-ol], the pIC50 in test [1] was 8.66; in the test on IL-4 it was 8.02; in the test with IL-13, 5.78; with IFNγ, 7.99.

For `COc1ccc(-c2cncc(C3COB(O)C3)n2)cc1OC1CCCC1` (stereo not drawn) [Example 125, 4-(6-(3-(cyclopentyloxy)-4-methoxyphenyl)pyrazin-2-yl)-1,2-oxaborolan-2-ol], the pIC50 in test [1] is 8.77; with IL-4 (Homo sapiens, PBMC) it was 7.95; in the test with IL-13 (Homo sapiens, PBMC), 6.24; in the test on IFNγ (Homo sapiens, PBMC), 8.61.

For the compound `COc1ccc(-c2cccc(C3=CB(O)OC3)c2)cc1OC1CCCC1` [Example 129, 4-(3′-(cyclopentyloxy)-4′-methoxy-[1,1′-biphenyl]-3-yl)-1,2-oxaborol-2(5H)-ol], the pIC50 in test [1] was 8.39; in the test with IL-4 (Homo sapiens, PBMC), 7.46; in the test on IL-13 (Homo sapiens, PBMC) it was 5.48; in the test on IFNγ (Homo sapiens, PBMC), 7.61.

For the compound `COc1ccc(-c2cccc(C3COB(O)C3)c2)cc1OC1CCCC1` (stereo not drawn) [Example 130, 4-(3′-(cyclopentyloxy)-4′-methoxy-[1,1′-biphenyl]-3-yl)-1,2-oxaborolan-2-ol], the pIC50 in test [1] was 8.80; in the test with IL-4 (Homo sapiens, PBMC), 6.92; in the test with IL-13 (Homo sapiens, PBMC), 6.23; with IFNγ (Homo sapiens, PBMC) it was 8.49.

Regarding `COc1cc(C2COB(O)C2)nc(-c2ccc(OC)c(OC3CCCC3)c2)n1` (stereo not drawn) [Example 132, 4-(2-(3-(cyclopentyloxy)-4-methoxyphenyl)-6-methoxypyrimidin-4-yl)-1,2-oxaborolan-2-ol], the negative logarithm of the IC50 (pIC50) in test [1] is 8.58; with IL-4 (Homo sapiens, PBMC), 7.89; in the test on IL-13 (Homo sapiens, PBMC), 6.22; in the test on IFNγ (Homo sapiens, PBMC), 8.62.

Regarding `CCCOc1cc(-c2nc(CC(=O)O)cc(C3COB(O)C3)n2)ccc1OC` (stereo not drawn) [Example 134, 2-(6-(2-hydroxy-1,2-oxaborolan-4-yl)-2-(4-methoxy-3-propoxyphenyl)pyrimidin-4-yl)acetic acid], the pIC50 in test [1] was 8.13; with IL-4 (Homo sapiens, PBMC) it was 8.75; in the test on IL-13 (Homo sapiens, PBMC), 5.96; in the test on IFNγ (Homo sapiens, PBMC), 8.52.

As to `CCCOc1cc(-c2nc(C3COB(O)C3)ccc2F)ccc1OC` (stereo not drawn) [Example 135, 4-(5-fluoro-6-(4-methoxy-3-propoxyphenyl)pyridin-2-yl)-1,2-oxaborolan-2-ol], the pIC50 in test [1] is 7.99; in the test with IL-4 (Homo sapiens, PBMC), 7.81; in the test on IL-13 (Homo sapiens, PBMC), 6.18; in the test on IFNγ (Homo sapiens, PBMC), 8.14.

Consider `CCOc1cc(-c2cncc(C3COB(O)C3)c2C(F)F)ccc1OC` (stereo not drawn) [Example 138, 4-(4-(difluoromethyl)-5-(3-ethoxy-4-methoxyphenyl)pyridin-3-yl)-1,2-oxaborolan-2-ol], for which the pIC50 in test [1] is 8.69; in the test on IL-4 (Homo sapiens, PBMC) it was 8.97; in the test with IL-13 (Homo sapiens, PBMC), 6.01; in the test with IFNγ (Homo sapiens, PBMC), 9.05.

As for `CCOc1cc(-c2cncc(C3COB(O)C3)c2C)c(F)cc1OC` (stereo not drawn) [Example 141, 4-(5-(5-ethoxy-2-fluoro-4-methoxyphenyl)-4-methylpyridin-3-yl)-1,2-oxaborolan-2-ol], the pIC50 in test [1] was 9.02; in the test on IL-4 (Homo sapiens, PBMC), 8.47; in the test with IL-13 (Homo sapiens, PBMC), 6.15; in the test with IFNγ (Homo sapiens, PBMC), 8.65.

For `CCCOc1cccc(-c2cncc(C3COB(O)C3)c2)c1` (stereo not drawn) [Example 145, 4-(5-(3-propoxphenyl)pyridin-3-yl)-1,2-oxaborolan-2-ol], the pIC50 in test [1] is 8.17; with IL-4 (Homo sapiens, PBMC) it was 6.99; in the test on IL-13 (Homo sapiens, PBMC), 5.65; with IFNγ (Homo sapiens, PBMC) it was 7.28.

For the compound `CCCOc1cc(-c2nc(C3COB(O)C3)ns2)ccc1OC` (stereo not drawn) [Example 147, 4-(5-(4-methoxy-3-propoxyphenyl)-1,2,4-thiadiazol-3-yl)-1,2-oxaborolan-2-ol], the pIC50 was 9.36 in test [1]; 8.57 in the test with IL-4 (Homo sapiens, PBMC); 5.90 in the test on IL-13 (Homo sapiens, PBMC); 8.80 with IFNγ (Homo sapiens, PBMC).

Take `CCCOc1cc(-c2nc(C3COB(O)C3)ns2)ccc1OC` (stereo not drawn) [Example 148]: the pIC50 in test [1] is 9.62; with IL-4 it was 8.31; with IL-13, 6.12; with IFNγ, 8.77.

In the case of `COc1ccc(-c2cncc(C3COB(O)C3)c2)cc1OC1CCCC1` (stereo not drawn) [Example 149, 4-(5-(3-(cyclopentyloxy)-4-methoxyphenyl)pyridin-3-yl)-1,2-oxaborolan-2-ol], the pIC50 in test [1] was 9.31; in the test on IL-4 (Homo sapiens, PBMC), 7.69; in the test with IL-13 (Homo sapiens, PBMC), 6.10; with IFNγ (Homo sapiens, PBMC) it was 9.06.

For `CCOc1c(OC)ccc(-c2cccc(C3COB(O)C3)n2)c1C#N` (stereo not drawn) [Example 151, 2-ethoxy-6-(6-(2-hydroxy-1,2-oxaborolan-4-yl)pyridin-2-yl)-3-methoxybenzonitrile], the pIC50 in test [1] was 8.22; with IL-4 (Homo sapiens, PBMC), 7.41; with IL-13 (Homo sapiens, PBMC), 6.09; with IFNγ (Homo sapiens, PBMC) it was 8.46.

In the case of `COc1ccc(-c2cccc(C3COB(O)C3)c2)nc1OC` (stereo not drawn) [Example 152, 4-(3-(5,6-dimethoxypyridin-2-yl)phenyl)-1,2-oxaborolan-2-ol], the pIC50 was 8.86 in test [1]; 6.79 in the test on IL-4 (Homo sapiens, PBMC); 6.08 with IL-13 (Homo sapiens, PBMC); 8.22 in the test on IFNγ (Homo sapiens, PBMC).

As to `COc1ccc(-c2cncc(C3COB(O)C3)c2)c(C#N)c1OC` (stereo not drawn) [Example 153, 6-(5-(2-hydroxy-1,2-oxaborolan-4-yl)pyridin-3-yl)-2,3-dimethoxybenzonitrile], the pIC50 in test [1] is 8.49; in the test with IL-4 (Homo sapiens, PBMC), 7.29; in the test with IL-13 (Homo sapiens, PBMC), 6.07; with IFNγ (Homo sapiens, PBMC), 8.59.

As for `CCCOc1nc(-c2cccc(C3=CB(O)OC3)c2)ccc1OC` [Example 155, 4-(3-(5-methoxy-6-propoxypyridin-2-yl)phenyl)-1,2-oxaborol-2(5H)-ol], the pIC50 in test [1] was 8.74; in the test with IL-4 (Homo sapiens, PBMC), 6.53; in the test on IL-13 (Homo sapiens, PBMC) it was 5.58; with IFNγ (Homo sapiens, PBMC) it was 8.25.

For `CCCOc1nc(-c2cccc(C3COB(O)C3)c2)ccc1OC` (stereo not drawn) [Example 156, 4-(3-(5-methoxy-6-propoxypyridin-2-yl)phenyl)-1,2-oxaborolan-2-ol], the pIC50 in test [1] was 9.09; with IL-4 (Homo sapiens, PBMC) it was 6.90; with IL-13 (Homo sapiens, PBMC), 6.05; with IFNγ (Homo sapiens, PBMC), 8.81.

Regarding `COc1cc(-c2ccc(OC)c(OC)c2)cc(C2COB(O)C2)c1` (stereo not drawn) [Example 157, 4-(3′,4′,5-trimethoxy-[1,1′-biphenyl]-3-yl)-1,2-oxaborolan-2-ol], the pIC50 in test [1] was 8.53; in the test on IL-4 (Homo sapiens, PBMC) it was 6.72; with IL-13 (Homo sapiens, PBMC) it was 6.04; in the test with IFNγ (Homo sapiens, PBMC), 8.25.
